Experimental data published in patent US10925885B2, “Thyromimetics for the treatment of fatty liver diseases” (Metabasis Therapeutics, Inc., priority 2005, dated 2021).
Entries after “also recorded” stand apart in the source; their conditions may differ.

Legend:
[1] = tested on: liver triglycerides; test: Liver triglycerides, chronic exposure in ob/ob mice; type: in vivo; conditions: for Liver Trigs: CMC suspension
Experimental: Sections of liver were removed and frozen. Liver triglycerides were analyzed following lipid extraction by the Bligh Dyer method (Bligh and Dyer, Can. J. Med. Sci. 37(8):911-7 (1959), incorporated herein by reference). Total triglycerides were analyzed in the liver extracts by an enzymatic assay (Thermo Electron Corporation). Total lipid was normalized to initial liver weight and triglyceride content was normalized to liver weight mGPDH activity was analyzed in isolated mitochondria using 2-(4-iodophenyl)-3-(4-nitrophenyl)-5-phenyl tetrazolium chloride as the terminal electron acceptor (Gardner R S, Analytical Biochemistry 59:272 (1974)). Commercially available GPDH was used in each assay as a standard (Sigma, St. Louis, Mo.).
The purpose of these studies was to compare the difference in efficacy to clear liver triglyceride content between Compound cis-13-1 and T3 in ob/ob mice.
(§1) Methods: ob/ob mice were maintained on a standard diet. Compound cis-13-1 was administered at doses of 3, 10 and 30 mg/kg/d orally in a CMC suspension. T3, 100 nmole/kg/d, was administered as an aqueous solution subcutaneously. Liver triglycerides were analyzed as described in example A. Epididymal fat pads were removed and weighed. Clinical chemistry analysis was performed by LabCorp (San Diego, Calif.).

[2] = Epididymal fat pad weight in ob/ob mice; type: in vivo; conditions: for EFP weight: CMC suspension
Experimental: as §1

[3] = tested on: ALT; test: ALT levels (clinical chemistry) in ob/ob mice; type: in vivo; conditions: 9 weeks of treatment, from 634 IU/L in the vehicle treated group
Experimental: as §1

[4] = tested on: hepatic steatosis; test: Hepatic steatosis measured chemically and histologically in ob/ob mice; type: in vivo; conditions: oral administration of cis-13-1
Experimental: as §1

[5] = tested on: hepatic steatosis; test: Liver steatosis (H&E sections) in ZDF rats; type: in vivo, Zucker diabetic fatty (ZDF) rats; conditions: oral, CMC suspension
Experimental: (§2) Methods: ZDF rats were maintained on a standard diet (5008). Compounds cis-13-1 or 18 were administered orally at the indicated doses using a CMC suspension. Liver steatosis was analyzed visually following H&E staining of paraffin embedded liver sections. TSH was measured using a rodent specific kit (Amersham Biosciences). At the end of the experiment, the left ventricle was cannulated with a high fidelity catheter-tip transducer (Millar) via the right carotid artery. Left ventricle pressure, its first derivative (LV dP/dt), lead I ECG, and heart rate triggered off the ECG waveform, were recorded.

[6] = tested on: TSH; test: TSH in ZDF rats; type: in vivo, Zucker diabetic fatty (ZDF) rats; conditions: 4 weeks of treatment
Experimental: as §2

[7] = Heart rate and cardiovascular parameters in ZDF rats; type: in vivo, Zucker diabetic fatty (ZDF) rats; conditions: end of experiment
Experimental: as §2

[8] = tested on: hepatic steatosis; test: Liver steatosis (H&E sections) in DIO mice; type: in vivo, diet induced obesity (DIO) mice; conditions: DIO mice (60% Kcal from fat diet); 30 mg/kg/d orally, CMC suspension, 10 weeks
Experimental: (§3) The purpose of these studies was to compare the ability of Compound cis-13-1 to clear liver steatosis in diet induced obesity (DIO) mice. Methods: […] mice were maintained on a 60% Kcal from fat diet. Compound cis-13-1 was administered at doses of 30 mg/kg/d orally in a CMC suspension for 10 weeks. Liver steatosis was analyzed visually following H&E staining of paraffin embedded liver sections. TSH was measured using a rodent specific kit (Amersham Biosciences). Heart rates were measured using a Lead I ECG with the heart rate calculated from the ECG waveform.

[9] = tested on: mitochondria; test: Ultrastructure of mitochondria in DIO mice; type: in vivo, diet induced obesity (DIO) mice; conditions: 30 mg/kg/d orally, 10 weeks
Experimental: as §3, with “Methods:” for “The purpose of these studies was to compare the ability of Compound cis-13-1 to clear liver steatosis in diet induced obesity (DIO) mice. Methods:”

[10] = tested on: TSH; test: TSH in DIO mice; type: in vivo, diet induced obesity (DIO) mice; conditions: 10 weeks of treatment
Experimental: as §3, with “Methods:” for “The purpose of these studies was to compare the ability of Compound cis-13-1 to clear liver steatosis in diet induced obesity (DIO) mice. Methods:”

[11] = Heart rate (Lead I ECG) in DIO mice; type: in vivo, diet induced obesity (DIO) mice; conditions: 30 mg/kg/d orally, 10 weeks
Experimental: as §3, with “Methods:” for “The purpose of these studies was to compare the ability of Compound cis-13-1 to clear liver steatosis in diet induced obesity (DIO) mice. Methods:”

[12] = tested on: CPT-1; test: Liver gene expression (real-time PCR) in normal mice; type: in vivo; conditions: normal C57Bl6 mice; 30 mg/kg/d orally, CMC suspension, 1 week; liver mRNA
Experimental: The purpose of these studies was to compare the ability of Compound cis-13-1 to change liver gene expression.
Methods: C57Bl6 mice were maintained on a normal rodent diet. Compound cis-13-1 was administered at doses of 30 mg/kg/d orally in a CMC suspension for 1 week. Changes in levels of mRNA for liver and heart genes are analyzed using reverse transcriptase followed by real-time PCR analysis. The analysis is performed using an iCycler instrument (Biorad) and appropriate primers by means of standard methodology (e.g., Schwab D A et al. Life Sciences 66:1683-94(2000)). The amounts of mRNA are normalized to an internal control, typically, cyclophilin.

EFP weight ([2]; 3 mg/kg/d orally): 4.4 ± 0.1 g
EFP weight ([2]; 10 mg/kg/d orally): 4.7 ± 0.1 g
EFP weight ([2]; 30 mg/kg/d orally): 4.4 ± 0.1 g
Effect on TSH, in words [6]: No significant decreases in TSH
Effect on TSH, in words [10]: No significant decreases in TSH
SMILES: Cc1cc(OC[P@@]2(=O)OCC[C@@H](c3cccc(Cl)c3)O2)cc(C)c1Cc1ccc(O)c(C(C)C)c1 [Compound cis-13-1]
Liver Trigs ([1]; 3 mg/kg/d orally): 87 ± 6 mg/g
Liver Trigs ([1]; 10 mg/kg/d orally): 66 ± 10 mg/g
Liver Trigs ([1]; 30 mg/kg/d orally): 59 ± 6 mg/g
Effect on liver (hepatic) triglyceride content, in words ([1]; cis-13-1 oral 3, 10, 30 mg/kg/d, T3 100 nmole/kg/d s.c.): decreased hepatic triglyceride content at 10 and 30 mg/kg/d
Effect on epididymal fat pad (EFP) weight, in words ([2]; cis-13-1 oral, T3 100 nmole/kg/d s.c.): did not decrease epididymal fat pad (EFP) weight; also recorded: no effect on epididymal fat pad weight
Decrease in ALT levels [3]: > 50%
Effect on hepatic steatosis measured chemically and histologically, in words [4]: decreased hepatic steatosis
Effect on hepatic steatosis (visual, H&E), in words [5]: visually decreased hepatic steatosis compared to control
Heart rates and other cardiovascular parameters, change from vehicle, in words [7]: no significant changes from vehicle in any parameter
Effect on hepatic steatosis (visual, H&E), in words [8]: decreased hepatic steatosis
Ultrastructure of mitochondria, in words [9]: no abnormalities in the ultrastructure of mitochondria
Change in heart rate, in words [11]: no significant change in heart rate
Increase in CPT-1 expression [12]: 3.5 fold
